The source of these data is patent publication EP2982368A1, “Small molecule compounds displacing focal adhesion core components” (Universität Konstanz, priority 2014, dated 2016).

In this assay the target is T1, FAK (Mus musculus, UniProt P34152).
T1 construct: expressed in transfected cells; host or cells: FAK-/- (p53-/-) mouse embryonic fibroblasts stably re-expressing GFP-FAK
Put plainly: GFP-FAK displacement from focal adhesions (fluorescence imaging, ImageJ quantification of focal adhesions per cell). Type of assay: cell-based. Particulars: for IC50: GFP-FAK MEFs on fibronectin, 1 h incubation, focal adhesions per cell, Hill slope model, read-out: IC50 (displacement of FAK from focal adhesions, cellular IC50); for time to FAK displacement, vinculin localization not disturbed: GFP-FAK MEFs stably expressing mKate-vinculin, 40 µM; for time to FAK displacement from focal adhesions: 20 µM, time series; for concentration sufficient to induce FAK displacement: increasing concentrations. The text has this: Ectopic expression of FRNK as a dominant negative inhibitor of FAK effectively blocks FAK dependent events. This type of interference seems to be used physiologically for regulation of FAK function in certain cell types (Taylor et al. 2001). However, there is currently no possibility to instantaneously interfere with FAK localization. Therefore, the inventors sought to identify small molecules to disrupt FAK mediated protein-protein-interactions. Towards this line they set-up a High Content Screen based on FAK-/- MEFs re-expressing GFP-FAK to visualize FAK localization at focal adhesions. Cells were seeded on fibronectin and incubated to allow adherence and spreading. Prior to fixation, cell nuclei were Hoechst stained. FAK containing focal adhesions and cells per field of view were quantified using a custom-made macro for ImageJ. The macro identifies focal adhesions due to local maxima of fluorescence intensity in the GFP-channel. Cells were counted in the Hoechst channel based on a binary image. Closely connected cell nuclei were separated by a watershed algorithm. […] Next, as a proof of principle GFP-FAK MEFs were transduced to express mKate2-tagged FRNK. mKate2-FRNK localizes to focal adhesions, where it efficiently displaces GFP-FAK (Figure 2). […] Consequently, the software can correctly identify FAK displacement from focal adhesions.
In order to find small molecules which induce the specific delocalization of FAK, two commercial compound libraries with more than 17.000 entries were screened. GFP-FAK MEFs were seeded on fibronectin in multi-well plates and compounds were transferred to the cells with a robot to a final concentration of 40 µM. Cells were incubated for 4 h and nuclei were Hoechst stained prior to fixation. Cells were imaged with an automated microscope and data were analyzed with the ImageJ macro. In the first screening round the macro identified 108 hits, which were curated by visual inspection to exclude instances of dramatic cell rounding and/or detachment. […] To validate these primary hits the inventors transduced the GFP-FAK MEFs to stably express mKate-vinculin, which serves as a FAK-independent marker of focal adhesions and facilitates indication of specific FAK displacement. On a first approach two compounds were identified, which induced FAK displacement within less than 1 h, while vinculin localization was not disturbed (Figure 4). […] Strikingly, they share distinct structural characteristics since both compounds have a NO2-group and an isosteric halogen-substituted phenyl- or thiophene-group (Figure 5).
In order to investigate the kinetics of FAK displacement at focal adhesions a time series was performed. GFP-FAK MEFs were treated with 20 µM of Mb31 or Mb36 and fixed after different time points. […] Mb36 kinetic was slightly slower with FAK delocalization after 20 min. In addition, GFP-FAK MEFs were treated with increasing concentrations of Mb31 or Mb36 to determine the minimum concentration required to interfere with FAK localization. Untreated or solvent (DMSO) treated cells show the expected localization of FAK at focal adhesions. […] Already 2 µM of Mb31 were sufficient to induce FAK displacement. […] Due to the faster kinetic and lower IC50 compared to Mb36 further studies were mainly performed using Mb31. […] In contrast, vinculin localization and the focal adhesion localization of talin, α-actinin, and zyxin is not disturbed (Figure 5 and Table 1).
About 17.000 compounds (40 µM working concentration) were screened for their ability to displace GFP-FAK from focal adhesions (FA) using an automated microscope (ImageXpress Micro, Molecular Devices, Ismaning, Germany) equipped with a Nikon 20x/0.75 NA CFI Plan Apo objective. […]

Structures are written as SMILES.

T1 sequence (P34152 whole entry): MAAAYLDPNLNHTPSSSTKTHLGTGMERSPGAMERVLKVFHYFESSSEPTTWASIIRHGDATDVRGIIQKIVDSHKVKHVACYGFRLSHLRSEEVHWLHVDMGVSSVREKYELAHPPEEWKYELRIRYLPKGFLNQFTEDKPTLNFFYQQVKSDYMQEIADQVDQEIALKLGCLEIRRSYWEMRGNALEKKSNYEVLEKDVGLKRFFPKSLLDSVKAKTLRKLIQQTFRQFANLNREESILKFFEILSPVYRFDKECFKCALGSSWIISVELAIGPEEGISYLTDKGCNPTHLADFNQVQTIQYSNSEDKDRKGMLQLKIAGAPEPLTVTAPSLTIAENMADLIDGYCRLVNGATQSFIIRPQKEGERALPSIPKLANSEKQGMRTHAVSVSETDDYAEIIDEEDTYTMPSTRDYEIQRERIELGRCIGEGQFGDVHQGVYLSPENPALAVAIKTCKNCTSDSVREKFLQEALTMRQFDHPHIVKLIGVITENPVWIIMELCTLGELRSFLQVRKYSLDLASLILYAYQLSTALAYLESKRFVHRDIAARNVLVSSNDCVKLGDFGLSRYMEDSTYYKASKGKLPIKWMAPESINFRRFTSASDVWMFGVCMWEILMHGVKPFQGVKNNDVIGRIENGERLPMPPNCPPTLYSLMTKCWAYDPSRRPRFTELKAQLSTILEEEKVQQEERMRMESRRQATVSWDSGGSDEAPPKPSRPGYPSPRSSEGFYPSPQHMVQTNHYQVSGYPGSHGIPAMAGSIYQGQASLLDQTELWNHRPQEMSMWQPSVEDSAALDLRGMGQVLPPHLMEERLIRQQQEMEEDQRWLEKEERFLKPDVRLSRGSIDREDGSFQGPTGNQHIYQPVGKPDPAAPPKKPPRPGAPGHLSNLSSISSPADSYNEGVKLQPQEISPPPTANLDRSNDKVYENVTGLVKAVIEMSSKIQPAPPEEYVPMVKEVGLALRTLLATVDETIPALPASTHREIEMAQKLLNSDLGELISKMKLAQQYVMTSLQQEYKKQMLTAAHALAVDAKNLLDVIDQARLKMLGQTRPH

Consider `Nc1ccc(SC(C[N+](=O)[O-])c2ccc(Cl)cc2)cc1` (stereo not shown) [FootLocker 2, 4-{[1-(4-chlorophenyl)-2-nitroethyl]thio}aniline], for which the concentration for half-maximal inhibition (IC50) was roughly 4.1 µM and the “time to FAK displacement, vinculin localization not disturbed” value is on record as “less than 1 h”. The “effect on FAK localization” value (GFP-FAK MEFs, 2 µM) is listed as “no effect was observed”. Moreover, where the note is “GFP-FAK MEFs”, the “time to FAK displacement from focal adhesions” value turned out to be 20 min and the “concentration sufficient to induce FAK displacement” value stood at 5 µM.
As to `O=[N+]([O-])C=Cc1cc(Br)cs1` [FootLocker 1, 4-bromo-2-(2-nitrovinyl)thiophene], the half-inhibitory concentration (IC50) was roughly 2 µM and the “time to FAK displacement, vinculin localization not disturbed” value is “less than 1 h”. In addition, where the note is “GFP-FAK MEFs”, the “time to FAK displacement from focal adhesions” value was no more than 5 min and the “concentration sufficient to induce FAK displacement” value worked out at 2 µM. Moreover, for the setting “second approach, narrower concentration range (1-5 µM)”, the “concentration sufficient for efficient FAK displacement” value was “about 4 µM”.
